Reference: patent US20160166627A1, “JOINT HEALTH COMPOSITIONS” (NESTEC S.A., priority 2013, published 2016)
Where a name gives a salt, the structure may show the parent alone.

Tested on: tumor necrosis factor α (TNF-α)
Assay: Serum TNF-α (inflammation marker) in ovariectomized rats, Rat TNF-α Platinum ELISA
Format: in vivo, Sprague-Dawley rats
Settings: week 12 (end of study), vs OVX group, P<0.05
Description: Ovariectomized (OVX) rats were used as a model to mimic osteoarthritis in healthy postmenopausal women. The effect of fructus corni on suppressing markers of cartilage degeneration, cross linked C-telopeptide of type 2 collagen (CTX-II) and inflammation, tumor necrosis factor α (TNF-α), was examined. Seven month-old female Sprague-Dawley rats were purchased from Beijing Weitong Lihua Laboratory Animal Centre. Surgery was performed by the research team in Shenyang Medical College. The rats were anaesthetized with Hypnorm™/Dormicum™ (1 part Hypnorm™+1 part Dormicum™+2 parts sterile water) given by injection at 0.2 ml/100 g body weight. After anaesthesia the animal was shaved on the back and the skin disinfected. A single incision in the skin was made above the spine, providing access to both ovaries. The muscles were cut to provide access and the ovaries were located and removed by cutting. The muscle on each side was closed with 1-2 stitches, and the skin was closed with 3-4 stitches. […] Rats in group F had free access to distilled water containing 0.5% glucosamine and the amount of water consumed was recorded for each rat. […] CTX-II was measured using the Serum Preclinical Cartilaps ELISA (Nordic Bioscience, Herlev, Denmark). […] Serum TNFα was measured using Rat TNF-α Platinum ELISA (eBioscience, USA) for the serum collected at the end of the study only. […] Data were expressed as means±SD. […]

## N[C@H]1C(O)O[C@H](CO)[C@@H](O)[C@@H]1O (stereo partly shown) [glucosamine, Glucosamine (GS) hydrochloride]
  serum TNF-α concentration, increase induced by OVX: not observed
